From patent US10604554B2, “Double-acylated GLP-1 derivatives” (Novo Nordisk A/S, priority 2012, dated 2020)
pEC50, pIC50: −log10 of the molar value.

Legend:
human GLP-1 receptor [1] = target: T1, human GLP-1 receptor (Homo sapiens, UniProt P43220); assay: In vitro potency (CRE luciferase; whole cells); assay type: cell-based; design: EC50/pM (ratio 1% HSA/0% HSA): unit not given here; conditions: for pEC50: BHK cells; for EC50/pM (ratio 1% HSA/0% HSA): ratio of EC50 at 1% HSA to EC50 at 0% HSA
T1 construct: expressed in transfected cells; host or cells: BHK cells, clone FCW467-12A/KZ10-1 (parent line BHKTS13), further transfected with CRE luciferase
Procedure: The purpose of this example is to test the activity, or potency, of the GLP-1 derivatives in vitro. The in vitro potency is the measure of human GLP-1 receptor activation in a whole cell assay.
In vitro potency was determined by measuring the response of human GLP-1 receptor in a reporter gene assay. The assay was performed in a stably transfected BHK cell line that expresses the human GLP-1 receptor and contains the DNA for the cAMP response element (CRE) coupled to a promoter and the gene for firefly luciferase (CRE luciferase). When the human GLP-1 receptor was activated it results in the production of cAMP, which in turn results in the luciferase protein being expressed. When assay incubation was completed the luciferase substrate (luciferin) was added and the enzyme converts luciferin to oxyluciferin and produces bioluminescence. The luminescence was measured and was the readout for the assay.
An increase of the in vitro potency, EC50 value, in the presence of serum albumin indicates an affinity to serum albumin and represents a method to predict a protracted pharmacokinetic profile of the test substance in animal models.
The cells were cultured at 5% CO2 in cell culture medium. They were aliquoted and stored in liquid nitrogen. Before each assay an aliquot was taken up and washed twice in PBS before being suspended at the desired concentration in the assay specific buffer.
The following chemicals were used in the assay: Pluronic F-68 (10%) (Gibco 2404), human serum albumin (HSA) (Sigma A9511), ovalbumin (Sigma A5503), DMEM w/o phenol red (Gibco 11880-028), 1 M Hepes (Gibco 15630), Glutamax 100× (Gibco 35050) and steadylite plus (PerkinElmer 6016757).
1) Cell stocks were thawed in a 37° C. water bath.
2) Cells were washed three times in PBS.
3) The cells were counted and adjusted to 5×10^3 cells/50 μl (1×10^5 cells/ml) in assay medium. A 50 μl aliquot of cells was transferred to each well in the assay plate.
4) Stocks of the test compounds and reference compounds were diluted to a concentration of 0.2 μM in 0% assay buffer for the 0% HSA CRE luciferase assay and 1% assay buffer for the HSA CRE luciferase assay. […] 5) A 50 μl aliquot of compound or blank was transferred in triplicate from the dilution plate to the assay plate. […] 7) The assay plate was removed from the incubator and allowed to stand at room temperature for 15 min. 8) A 100 μl aliquot of steadylite plus reagent was added to each well of the assay plate (reagent was light sensitive). 9) Each assay plate was covered with aluminum foil to protect it from light and shaken for 30 min at room temperature. 10) Each assay plate was read in a Packard TopCount NXT instrument. Calculations and Results
The data from the TopCount instrument were transferred to GraphPad Prism software. The software averages the values for each replicate and performs a non-linear regression.

human GLP-1 receptor [2] = target: T1, human GLP-1 receptor; assay: GLP-1 receptor binding (SPA, displacement of 125I-GLP-1)
Procedure: The purpose of this experiment is to investigate the binding to the GLP-1 receptor of the GLP-1 derivatives, and how the binding is potentially influenced by the presence of albumin. This is done in an in vitro experiment as described below.
In order to test the binding of the derivatives to albumin, the assay was performed with a low concentration of albumin (0.001%—corresponding to the residual amount thereof in the tracer), as well as with a high concentration of albumin (2.0% added). A shift in the binding affinity, IC50, is an indication that the peptide in question binds to albumin, and thereby a prediction of a potential protracted pharmacokinetic profile of the peptide in question in animal models.
Species (in vitro): Hamster
Biological End Point: Receptor Binding
A stable transfected cell line and a high expressing clone were selected for screening. The cells were grown at 5% CO2 in DMEM, 10% FCS, 1% Pen/Strep (Penicillin/Streptomycin) and 1.0 mg/ml of the selection marker G418.
The cells (approx. 80% confluence) were washed twice in PBS and harvested with Versene (aqueous solution of the tetrasodium salt of ethylenediaminetetraacetic acid), following which they were separated by centrifugation at 1000 rpm for 5 min. The cells/cell pellet must be kept on ice to the extent possible in the subsequent steps. The cell pellet was homogenised with Ultrathurrax for 20-30 seconds in a suitable amount of Buffer 1 (depending on the amount of cells, but e.g. 10 ml). The homogenate was centrifuged at 20000 rpm for 15 minutes. The pellet was resuspended (homogenised) in 10 ml Buffer 2 and re-centrifuged. This step was repeated once more. The resulting pellet was resuspended in Buffer 2, and the protein concentration was determined. The membranes were stored at minus 80° C.
Buffer 1:20 mM Na-HEPES+10 mM EDTA, pH 7.4
Buffer 2:20 mM Na-HEPES+0.1 mM EDTA, pH 7.4
Test compounds, membranes, SPA-particles and [^125I]-GLP-1(7-36)NH2 were diluted in assay buffer. 50 ul (micro liter) HSA (“high albumin” experiment containing 2% HSA), or buffer (“low albumin” experiment containing 0.001% HSA) was added to Optiplate, and 25 ul of test compounds were added. 5-10 ug membrane protein/sample was added (50 ul) corresponding to 0.1-0.2 mg protein/ml (to be preferably optimised for each membrane preparation). SPA-particles (Wheatgerm agglutinin SPA beads, Perkin Elmer, # RPNQ0001) were added in an amount of 0.5 mg/well (50 ul). The incubation was started with [^125I]-GLP-1]-(7-36)NH2 (final concentration 0.06 nM corresponding to 49.880 DPM, 25 ul). The plates were sealed with PlateSealer and incubated for 120 minutes at 30° C. while shaking. The plates were centrifuged (1500 rpm, 10 min) and counted in Topcounter.

[3] = In vitro potency (CRE luciferase) EC50 (1% HSA), 1% HSA
[4] = Receptor binding affinity IC50 (high HSA), 2.0% HSA (high albumin)
[5] = Receptor binding affinity IC50 (low HSA), 0.001% HSA (low albumin)
[6] = In vitro potency (CRE luciferase) EC50 (0% HSA), 0% HSA

T1 sequence (P43220 24-463): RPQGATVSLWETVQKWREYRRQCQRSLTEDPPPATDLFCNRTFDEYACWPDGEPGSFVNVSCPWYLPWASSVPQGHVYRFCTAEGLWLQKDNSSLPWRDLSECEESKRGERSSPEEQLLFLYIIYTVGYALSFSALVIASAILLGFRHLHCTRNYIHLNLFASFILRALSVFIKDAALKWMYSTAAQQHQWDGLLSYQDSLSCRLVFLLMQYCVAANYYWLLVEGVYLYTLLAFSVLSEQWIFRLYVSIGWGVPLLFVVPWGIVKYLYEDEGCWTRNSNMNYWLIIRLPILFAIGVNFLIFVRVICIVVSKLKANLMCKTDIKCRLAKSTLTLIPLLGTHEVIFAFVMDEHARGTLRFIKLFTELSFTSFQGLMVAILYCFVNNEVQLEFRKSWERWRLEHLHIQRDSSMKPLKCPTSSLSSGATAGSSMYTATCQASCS

Row | Structure (SMILES) | pEC50 (human GLP-1 receptor [1]; [3]) | EC50/pM (ratio 1% HSA/0% HSA) (human GLP-1 receptor [1]) | pIC50 (human GLP-1 receptor [2]; [4]) | pIC50 (human GLP-1 receptor [2]; [5]) | pEC50 (human GLP-1 receptor [1]; [6])
1 | CC[C@H](C)[C@H](NC(=O)[C@H](Cc1ccccc1)NC(=O)[C@H](CCC(=O)O)NC(=O)[C@H](CCCCNC(=O)[C@@H](N)CCCCNC(=O)[C@@H](N)CCCCNC(=O)CC[C@H](NC(=O)CCCCCCCCCCOc1ccc(C(=O)O)cc1)C(=O)O)NC(=O)[C@H](C)NC(=O)[C@H](C)NC(=O)[C@H](CCC(N)=O)NC(=O)CNC(=O)[C@H](CCC(=O)O)NC(=O)[C@H](CC(C)C)NC(=O)[C@H](Cc1ccc(O)cc1)NC(=O)[C@H](CO)NC(=O)[C@H](CO)NC(=O)[C@@H](NC(=O)[C@H](CC(=O)O)NC(=O)[C@H](CO)NC(=O)[C@@H](NC(=O)[C@H](Cc1ccccc1)NC(=O)[C@@H](NC(=O)CNC(=O)[C@H](CCC(=O)O)NC(=O)C(C)(C)NC(=O)[C@@H](N)Cc1c[nH]cn1)[C@@H](C)O)[C@@H](C)O)C(C)C)C(=O)N[C@@H](C)C(=O)N[C@@H](Cc1c[nH]cn1)C(=O)N[C@@H](CC(C)C)C(=O)N[C@H](C(=O)N[C@@H](CCC(N)=O)C(=O)NCC(=O)N[C@@H](CCCNC(=N)N)C(=O)N[C@@H](CCCCNC(=O)[C@@H](N)CCCCNC(=O)[C@@H](N)CCCCNC(=O)CC[C@H](NC(=O)CCCCCCCCCCOc1ccc(C(=O)O)cc1)C(=O)O)C(=O)O)C(C)C [Example 31, N^ε26-[(2S)-2-amino-6-[[(2S)-2-amino-6-[[(4S)-4-carboxy-4-[11-(4-carboxyphenoxy)undecanoylamino]butanoyl]amino]hexanoyl]amino]hexanoyl], N^ε37-[(2S)-2-amino-6-[[(2S)-2-amino-6-[[(4S)-4-carboxy-4-[11-(4-carboxyphenoxy)undecanoylamino]butanoyl]amino]hexanoyl]amino]hexanoyl]-[Aib^8,His^31,Gln^34,Lys^37]-GLP-1-(7-37)-peptide] | 9.26 | 82 | 7.40 | 9.12 | 
2 | CC[C@H](C)[C@H](NC(=O)[C@H](Cc1ccccc1)NC(=O)[C@H](CCC(=O)O)NC(=O)[C@H](CCCCNC(=O)[C@@H](N)CCCCNC(=O)[C@@H](N)CCCCNC(=O)CC[C@H](NC(=O)CCCCCCCCCOc1ccc(C(=O)O)cc1)C(=O)O)NC(=O)[C@H](C)NC(=O)[C@H](C)NC(=O)[C@H](CCC(N)=O)NC(=O)CNC(=O)[C@H](CCC(=O)O)NC(=O)[C@H](CC(C)C)NC(=O)[C@H](Cc1ccc(O)cc1)NC(=O)[C@H](CO)NC(=O)[C@H](CO)NC(=O)[C@@H](NC(=O)[C@H](CC(=O)O)NC(=O)[C@H](CO)NC(=O)[C@@H](NC(=O)[C@H](Cc1ccccc1)NC(=O)[C@@H](NC(=O)CNC(=O)[C@H](CCC(=O)O)NC(=O)C(C)(C)NC(=O)[C@@H](N)Cc1c[nH]cn1)[C@@H](C)O)[C@@H](C)O)C(C)C)C(=O)N[C@@H](C)C(=O)N[C@@H](Cc1c[nH]cn1)C(=O)N[C@@H](CC(C)C)C(=O)N[C@H](C(=O)N[C@@H](CCC(N)=O)C(=O)NCC(=O)N[C@@H](CCCNC(=N)N)C(=O)N[C@@H](CCCCNC(=O)[C@@H](N)CCCCNC(=O)[C@@H](N)CCCCNC(=O)CC[C@H](NC(=O)CCCCCCCCCOc1ccc(C(=O)O)cc1)C(=O)O)C(=O)O)C(C)C [Example 32, N^ε26-[(2S)-2-amino-6-[[(2S)-2-amino-6-[[(4S)-4-carboxy-4-[10-(4-carboxyphenoxy)decanoylamino]butanoyl]amino]hexanoyl]amino]hexanoyl], N^ε37-[(2S)-2-amino-6-[[(2S)-2-amino-6-[[(4S)-4-carboxy-4-[10-(4-carboxyphenoxy)decanoylamino]butanoyl]amino]hexanoyl]amino]hexanoyl]-[Aib^8,His^31,Gln^34,Lys^37]-GLP-1-(7-37)-peptide] | 9.79 | 14 | 7.57 | 8.80 | 10.96
3 | CC[C@H](C)[C@H](NC(=O)[C@H](Cc1ccccc1)NC(=O)[C@H](CCC(=O)O)NC(=O)[C@H](CCCCNC(=O)[C@@H](N)CCCCNC(=O)[C@@H](N)CCCCNC(=O)COCCOCCNC(=O)COCCOCCNC(=O)CC[C@H](NC(=O)CCCCCCCCCCOc1ccc(C(=O)O)cc1)C(=O)O)NC(=O)[C@H](C)NC(=O)[C@H](C)NC(=O)[C@H](CCC(N)=O)NC(=O)CNC(=O)[C@H](CCC(=O)O)NC(=O)[C@H](CC(C)C)NC(=O)[C@H](Cc1ccc(O)cc1)NC(=O)[C@H](CO)NC(=O)[C@H](CO)NC(=O)[C@@H](NC(=O)[C@H](CC(=O)O)NC(=O)[C@H](CO)NC(=O)[C@@H](NC(=O)[C@H](Cc1ccccc1)NC(=O)[C@@H](NC(=O)CNC(=O)[C@H](CCC(=O)O)NC(=O)C(C)(C)NC(=O)[C@@H](N)Cc1c[nH]cn1)[C@@H](C)O)[C@@H](C)O)C(C)C)C(=O)N[C@@H](C)C(=O)N[C@@H](Cc1c[nH]c2ccccc12)C(=O)N[C@@H](CC(C)C)C(=O)N[C@H](C(=O)N[C@@H](CCCNC(=N)N)C(=O)NCC(=O)N[C@@H](CCCNC(=N)N)C(=O)N[C@@H](CCCCNC(=O)[C@@H](N)CCCCNC(=O)[C@@H](N)CCCCNC(=O)COCCOCCNC(=O)COCCOCCNC(=O)CC[C@H](NC(=O)CCCCCCCCCCOc1ccc(C(=O)O)cc1)C(=O)O)C(=O)O)C(C)C [Example 33] | 10.16 | 11 | 7.48 | 9.51 | 11.13
